{"source": "patent US20020061345A1", "about": "“PROCEDURE FOR PREPARING A FOOD ADDITIVE, AND AN ADDITIVE AND ITS USE” (priority 1996, published 2002)", "key": {"[1]": {"assay": "Example 6 feeding test in growing piglets, growth and diarrhoea", "assay_type": "in vivo", "method": "An amount of a product obtained from baking yeast by hydrolytic treatment, was added to the fodder of growing piglets. The fodder for the reference group contained Olaqvindox chemotherapeutic substance, 50 mg/kg. In the fodder for the yeast group, instead of Olaqvindox, yeast fraction was added in an amount of 0.5%."}, "[2]": {"assay": "Example 7 feeding test in growing pigs", "assay_type": "in vivo", "details": "Olagvindox 50 ppm, 33 test days", "method": "An amount of a product obtained from baking yeast by hydrolytic treatment, was added to the fodder of growing pigs. The measurement was implemented as in the preceding example."}, "[3]": {"assay": "Example 5 feeding test, development of piglets", "assay_type": "in vivo, pigs", "source_text": "In this test, four equal groups of pigs were fed with the following fodders:\nGroup 1: basic fodder (reference)\nGroup 2: basic fodder+40 ppm Avilamysine\nGroup 3: basic fodder+product prepared from yeast by hydrolytic treatment, in an amount of 0.5 w-% (of dry matter)\nGroup 4: basic fodder+product prepared from yeast by hydrolytic treatment, in an amount of 1.0 w-% (of dry matter)."}, "[4]": {"details": "group 2, basic fodder + 40 ppm Avilamysine"}}, "note": "Marks after values point to notes of the source that are not given here.", "data": [{"molecule": "Cc1c(C(=O)NCCO)[n+]([O-])c2ccccc2[n+]1[O-]", "note": "[Olaqvindox]", "values": [{"measurement": "Additional growth", "setting": "[1]; Olaqvindox 50 ppm in fodder", "result": 255, "unit": "g/day"}, {"measurement": "Fodder efficiency kg/kg", "setting": "[1]; Olaqvindox 50 ppm in fodder", "result": 1.61, "unit": "kg/kg"}, {"measurement": "Final weight", "setting": "[1]; Olaqvindox 50 ppm in fodder, initial weight 7.10 kg", "result": 12.47, "unit": "kg"}, {"measurement": "Diarrhoea index", "setting": "[1]; Olaqvindox 50 ppm, average, 1 = normal faeces, 2 = loose faeces, 3 = watery diarrhoea", "result": 2.5}, {"measurement": "Treatments for diarrhoea, % of farrows", "setting": "[1]; Olaqvindox 50 ppm, treated with an antibiotic or with zinc oxide because of diarrhoea", "result": "100 % of farrows"}, {"measurement": "Fodder efficiency kg/kg", "setting": "[2]", "result": 2.07, "unit": "kg/kg"}, {"measurement": "Additional growth, g/day", "setting": "[2]; initial weight 21.7 kg", "result": "777^a g/day"}]}, {"molecule": "Avilamysine", "values": [{"measurement": "effect on growth and fodder consumption compared with the reference group", "setting": "[3]; 40 ppm Avilamysine", "result": "increased the growth and fodder consumption effectively"}, {"measurement": "ADG", "setting": "[3]; [4]", "result": 502, "unit": "g/day"}, {"measurement": "FCR kg fodder/kg Weight increase", "setting": "[3]; [4]", "result": 1.81, "unit": "kg fodder/kg"}, {"measurement": "Final weight", "setting": "[3]; group 2, basic fodder + 40 ppm Avilamysine, starting weight 10.6 kg", "result": 24.1, "unit": "kg"}]}]}
